Laboratory results from US8952024B2, “Herbicidal pyrimidone derivatives” (E I du Pont de Nemours and Company, priority 2009, dated 2015).

Experiments:
Assay type in all cases: in vivo
[1] = tested on: barnyardgrass (Echinochloa crus-galli); test: Test A pre-/postemergence plant response
Procedure, shortened: (§1)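 Both pre- and postemergence treatments are applied simultaneously, using chemicals formulated in a non-phytotoxic solvent mixture with surfactant. Postemergence plants are 2–10 cm high with one to two leaves. After approximately ten days in a greenhouse, injury is scored visually from 0 (none) to 100 (complete control) relative to untreated plants.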

corn (Zea mays) = test: Test A pre-/postemergence plant response
Procedure, shortened: as §1

[2] = tested on: giant foxtail (Setaria faberii); test: Test A pre-/postemergence plant response
Procedure, shortened: as §1

[3] = tested on: large crabgrass (Digitaria sanguinalis); test: Test A pre-/postemergence plant response
Procedure, shortened: as §1

[4] = tested on: morningglory (Ipomoea spp.); test: Test A pre-/postemergence plant response
Procedure, shortened: as §1

[5] = tested on: pigweed (Amaranthus retroflexus); test: Test A pre-/postemergence plant response
Procedure, shortened: as §1

[6] = tested on: velvetleaf (Abutilon theophrasti); test: Test A pre-/postemergence plant response
Procedure, shortened: as §1

[7] = tested on: wheat (Triticum aestivum); test: Test A pre-/postemergence plant response
Procedure, shortened: as §1

[8] = tested on: barnyardgrass (Echinochloa crus-galli); test: Test B flooded paddy test; conditions: for Plant response rating, Flood, Barnyardgrass: 250 g ai/ha, flooded paddy test, visual rating on 0 to 100 scale (0 no effect, 100 complete control) after 13 to 15 days; for Plant response rating, Barnyardgrass: Flood (flooded paddy test), 13 to 15 days; for Barnyardgrass plant response rating: Flood, 31 g ai/ha, scale 0 to 100 (0 no effect, 100 complete control)
Procedure, shortened: (§2)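 Rice, umbrella sedge, ducksalad and barnyardgrass were grown to the 2-leaf stage, flooded to 3 cm, and compound was applied directly to the paddy water, with that depth kept throughout. After 13 to 15 days in the greenhouse, plants were visually rated against controls on a 0 (no effect) to 100 (complete control) scale.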

[9] = tested on: ducksalad (Heteranthera limosa); test: Test B flooded paddy test; conditions: for Plant response rating, Flood, Ducksalad: 250 g ai/ha, flooded paddy test, visual rating on 0 to 100 scale (0 no effect, 100 complete control) after 13 to 15 days; for Plant response rating, Ducksalad: Flood (flooded paddy test), 13 to 15 days; for Ducksalad plant response rating: Flood, 31 g ai/ha, scale 0 to 100 (0 no effect, 100 complete control)
Procedure, shortened: as §2

rice (Oryza sativa) = test: Test B flooded paddy test; conditions: for Plant response rating, Flood, Rice: 250 g ai/ha, flooded paddy test, visual rating on 0 to 100 scale (0 no effect, 100 complete control) after 13 to 15 days; for Plant response rating, Rice: Flood (flooded paddy test), 13 to 15 days; for Rice plant response rating: Flood, 31 g ai/ha, scale 0 to 100 (0 no effect, 100 complete control)
Procedure, shortened: as §2

[10] = tested on: umbrella sedge (Cyperus difformis); test: Test B flooded paddy test; conditions: for Plant response rating, Flood, Sedge, Umbrella: 250 g ai/ha, flooded paddy test, visual rating on 0 to 100 scale (0 no effect, 100 complete control) after 13 to 15 days; for Plant response rating, Sedge, Umbrella: Flood (flooded paddy test), 13 to 15 days; for Sedge, Umbrella plant response rating: Flood, 31 g ai/ha, scale 0 to 100 (0 no effect, 100 complete control)
Procedure, shortened: as §2

[11] = Postemergence, 125 g ai/ha, visual injury, 0 to 100 scale (0 no effect, 100 complete control), approx. ten days
[12] = Postemergence, 500 g ai/ha, 0 to 100 scale, 0 = no effect, 100 = complete control, approx. ten days
[13] = Preemergence, 125 g ai/ha, 0 to 100 scale, 0 = no effect, 100 = complete control
[14] = Preemergence, 500 g ai/ha, visual injury, 0 to 100 scale (0 no effect, 100 complete control), approx. ten days
[15] = 62 g ai/ha, scale 0 to 100, 0 is no effect, 100 is complete control
[16] = Postemergence, 125 g ai/ha, 0 to 100 scale where 0 is no effect and 100 is complete control
[17] = Postemergence, 500 g ai/ha, visual injury, 0 to 100 scale (0 no effect, 100 complete control), approx. ten days
[18] = Preemergence, 500 g ai/ha, 0 to 100 scale, 0 = no effect, 100 = complete control
[19] = 125 g ai/ha, scale 0 to 100, 0 is no effect, 100 is complete control
[20] = 62 g ai/ha, scale of 0 to 100 where 0 is no effect and 100 is complete control

Cc1cc(Cl)ccc1-n1c(-c2ccccc2)ncc(C(=O)C2=C(O)CCCC2=O)c1=O [Compound 43]
Barnyardgrass plant response rating [1, 11]: 70 | Plant response rating, Barnyardgrass [1, 12]: 90 | Plant response rating, Barnyardgrass [1, 13]: 10 | Plant response rating, Barnyardgrass [1, 14]: 80 | Corn plant response rating (corn (Zea mays); [11]): 0 | Plant response rating, Corn (corn (Zea mays); [12]): 50 | Plant response rating, Corn (corn (Zea mays); [13]): 0 | Plant response rating, Corn (corn (Zea mays); [14]): 0 | Foxtail, Giant plant response rating [2, 11]: 60 | Plant response rating, Foxtail, Giant [2, 12]: 80 | Plant response rating, Foxtail, Giant [2, 13]: 10 | Plant response rating, Foxtail, Giant [2, 14]: 70 | Crabgrass, Large plant response rating [3, 11]: 70 | Plant response rating, Crabgrass, Large [3, 12]: 90 | Plant response rating, Crabgrass, Large [3, 13]: 50 | Plant response rating, Crabgrass, Large [3, 14]: 100 | Morningglory plant response rating [4, 11]: 20 | Plant response rating, Morningglory [4, 12]: 80 | Plant response rating, Morningglory [4, 13]: 0 | Plant response rating, Morningglory [4, 14]: 10 | Pigweed plant response rating [5, 11]: 100 | Plant response rating, Pigweed [5, 12]: 100 | Plant response rating, Pigweed [5, 13]: 90 | Plant response rating, Pigweed [5, 14]: 100 | Velvetleaf plant response rating [6, 11]: 100 | Plant response rating, Velvetleaf [6, 12]: 100 | Plant response rating, Velvetleaf [6, 13]: 60 | Plant response rating, Velvetleaf [6, 14]: 100 | Wheat plant response rating [7, 11]: 0 | Plant response rating, Wheat [7, 12]: 0 | Plant response rating, Wheat [7, 13]: 0 | Plant response rating, Wheat [7, 14]: 0 | Plant response rating, Flood, Barnyardgrass [8]: 20 | Plant response rating, Barnyardgrass [8, 15]: 20 | Plant response rating, Flood, Ducksalad [9]: 80 | Plant response rating, Ducksalad [9, 15]: 70 | Plant response rating, Flood, Rice (rice (Oryza sativa)): 40 | Plant response rating, Rice (rice (Oryza sativa); [15]): 0 | Plant response rating, Flood, Sedge, Umbrella [10]: 80 | Plant response rating, Sedge, Umbrella [10, 15]: 30

CCOCCn1c(-c2cc(F)cc(F)c2)ncc(C(=O)C2=C(O)CCCC2=O)c1=O [Compound 182]
Plant response rating, Barnyardgrass [1, 16]: 70 | Barnyardgrass plant response rating [1, 17]: 90 | Plant response rating, Barnyardgrass [1, 13]: 70 | Plant response rating, Barnyardgrass [1, 18]: 90 | Plant response rating, Corn (corn (Zea mays); [16]): 0 | Corn plant response rating (corn (Zea mays); [17]): 20 | Plant response rating, Corn (corn (Zea mays); [13]): 0 | Plant response rating, Corn (corn (Zea mays); [18]): 20 | Plant response rating, Foxtail, Giant [2, 16]: 50 | Foxtail, Giant plant response rating [2, 17]: 80 | Plant response rating, Foxtail, Giant [2, 13]: 50 | Plant response rating, Foxtail, Giant [2, 18]: 80 | Plant response rating, Crabgrass, Large [3, 16]: 80 | Crabgrass, Large plant response rating [3, 17]: 90 | Plant response rating, Crabgrass, Large [3, 13]: 100 | Plant response rating, Crabgrass, Large [3, 18]: 100 | Plant response rating, Morningglory [4, 16]: 100 | Morningglory plant response rating [4, 17]: 100 | Plant response rating, Morningglory [4, 13]: 70 | Plant response rating, Morningglory [4, 18]: 80 | Plant response rating, Pigweed [5, 16]: 80 | Pigweed plant response rating [5, 17]: 100 | Plant response rating, Pigweed [5, 13]: 90 | Plant response rating, Pigweed [5, 18]: 100 | Plant response rating, Velvetleaf [6, 16]: 100 | Velvetleaf plant response rating [6, 17]: 100 | Plant response rating, Velvetleaf [6, 13]: 70 | Plant response rating, Velvetleaf [6, 18]: 100 | Plant response rating, Wheat [7, 16]: 0 | Wheat plant response rating [7, 17]: 50 | Plant response rating, Wheat [7, 13]: 0 | Plant response rating, Wheat [7, 18]: 50 | Plant response rating, Barnyardgrass [8, 19]: 0 | Barnyardgrass plant response rating [8]: 0 | Plant response rating, Ducksalad [9, 19]: 85 | Ducksalad plant response rating [9]: 60 | Plant response rating, Rice (rice (Oryza sativa); [19]): 0 | Rice plant response rating (rice (Oryza sativa)): 0 | Plant response rating, Sedge, Umbrella [10, 19]: 75 | Sedge, Umbrella plant response rating [10]: 50

O=C1CCCC(O)=C1C(=O)c1cnc(-c2ccccc2)n(CCC(F)(F)F)c1=O [Compound 207]
Plant response rating, Barnyardgrass [1, 16]: 60 | Barnyardgrass plant response rating [1, 17]: 90 | Plant response rating, Barnyardgrass [1, 13]: 10 | Plant response rating, Barnyardgrass [1, 18]: 50 | Plant response rating, Corn (corn (Zea mays); [16]): 0 | Corn plant response rating (corn (Zea mays); [17]): 30 | Plant response rating, Corn (corn (Zea mays); [13]): 0 | Plant response rating, Corn (corn (Zea mays); [18]): 0 | Plant response rating, Foxtail, Giant [2, 16]: 60 | Foxtail, Giant plant response rating [2, 17]: 90 | Plant response rating, Foxtail, Giant [2, 13]: 30 | Plant response rating, Foxtail, Giant [2, 18]: 80 | Plant response rating, Crabgrass, Large [3, 16]: 60 | Crabgrass, Large plant response rating [3, 17]: 90 | Plant response rating, Crabgrass, Large [3, 13]: 60 | Plant response rating, Crabgrass, Large [3, 18]: 100 | Plant response rating, Morningglory [4, 16]: 40 | Morningglory plant response rating [4, 17]: 80 | Plant response rating, Morningglory [4, 13]: 0 | Plant response rating, Morningglory [4, 18]: 70 | Plant response rating, Pigweed [5, 16]: 100 | Pigweed plant response rating [5, 17]: 100 | Plant response rating, Pigweed [5, 13]: 80 | Plant response rating, Pigweed [5, 18]: 100 | Plant response rating, Velvetleaf [6, 16]: 100 | Velvetleaf plant response rating [6, 17]: 100 | Plant response rating, Velvetleaf [6, 13]: 70 | Plant response rating, Velvetleaf [6, 18]: 100 | Plant response rating, Wheat [7, 16]: 0 | Wheat plant response rating [7, 17]: 0 | Plant response rating, Wheat [7, 13]: 0 | Plant response rating, Wheat [7, 18]: 0 | Plant response rating, Flood, Barnyardgrass [8]: 20 | Plant response rating, Barnyardgrass [8, 20]: 0 | Plant response rating, Barnyardgrass [8, 19]: 0 | Barnyardgrass plant response rating [8]: 0 | Plant response rating, Flood, Ducksalad [9]: 50 | Plant response rating, Ducksalad [9, 20]: 0 | Plant response rating, Ducksalad [9, 19]: 0 | Ducksalad plant response rating [9]: 0 | Plant response rating, Flood, Rice (rice (Oryza sativa)): 15 | Plant response rating, Rice (rice (Oryza sativa); [20]): 0 | Plant response rating, Rice (rice (Oryza sativa); [19]): 15 | Rice plant response rating (rice (Oryza sativa)): 0 | Plant response rating, Flood, Sedge, Umbrella [10]: 70 | Plant response rating, Sedge, Umbrella [10, 20]: 40 | Plant response rating, Sedge, Umbrella [10, 19]: 60 | Sedge, Umbrella plant response rating [10]: 0
